Experimental data: patent US11623931B2, “Bicyclic compounds for diagnosis and therapy” (AC IMMUNE SA, priority 2016, dated 2023)

Key:
Design in all cases: key: − (No); +/− (very weak); + (weak); ++ (good); +++ (strong)
[1] = biological target: T1, aSyn aggregates on PD sections (Homo sapiens, UniProt P37840); experiment: Assay 1 (fluorescence based assay): direct staining of human Parkinson's disease brain sections; assay type: binding; details: staining intensity; compound 100 μM, frozen amygdala sections, PD Braak stage V-VI
T1 construct: 20 μm frozen sections from amygdala were purchased from an external provider (Tissue Solutions Ltd.); tissue Tissue Solutions Ltd; host or cells: human PD amygdala, frozen sections, Braak stage V-VI
Text: Assay 1 (Fluorescence Based Assay):
(§1) Direct Staining of Compounds of this Invention to Human Parkinson's Disease Brain Sections
(§2) 20 μm frozen sections from amygdala were purchased from an external provider (Tissue Solutions Ltd.). Donors were diagnosed with PD, Braak stage V-VI (Braak et al., Neurobiol. Aging, 2003, 24, 197-211) and thus with confirmed aSyn pathology. PD donors, Braak stage V-VI with mixed pathology, containing aSyn aggregates as well as Aβ plaques, were also used in this assay. Sections were kept at −80° C. until start of the experiment.
(§3) Brain sections were encircled with pap pen liquid blocker to reduce the volume of solution for the different incubations. Sections were fixed for 15 min at 4° C. with 4% paraformaldehyde and washed three times for 5 minutes with PBS (phosphate buffered saline) at room temperature. Test compounds were incubated on the sections at 100 μM in 50% ethanol in water for 30 min at room temperature, followed by three washes of 5 minutes with PBS. Sections were then saturated and permeabilized in blocking buffer (PBS, 10% NGS, 0.25% Triton) for 1 hour at room temperature and then incubated for 2 hours at room temperature with the primary antibodies against aSyn: aSyn-211 (SantaCruz Biotechnology sc-12767) or aSyn-pS129 (Abcam AB51253), and primary antibody against AR, 4G8, (Covance, SIG-39220). All primary antibodies diluted 1/250 in PBS, 5% NGS, 0.25% Triton. After three washes in PBS, the sections were incubated for 30 minutes at room temperature with a secondary anti-mouse antibody labeled with AlexaFluor555 (Invitrogen A21422) or anti-rabbit antibody labeled with AlexaFluor555 (Invitrogen A21428) and further washed three times in PBS. To reduce auto-fluorescence of the tissue, the sections were incubated in a solution of 0.1% Sudan Black (Sigma 199664) in 70% ethanol for 15 min at room temperature, followed by four washes with PBS and mounted under cover slips using ProLong Gold Antifade reagent (Invitrogen P36930).
(§4) Sections were analyzed on the Nikon Eclipse Ti microscope to detect staining and imaged using Nikon DS-Fi2 camera and NIS-Element AR4.13.1 software.

[2] = system: Aβ plaques on AD sections; experiment: Assay 1 (fluorescence based assay): direct staining of human Alzheimer's disease brain sections; assay type: binding; details: staining intensity; compound 100 μM, frozen amygdala sections, AD Braak stage V-VI
Method: Direct Staining of Compounds of this Invention to Human Alzheimer's Disease Brain Sections 20 μm frozen sections from amygdala were purchased from an external provider (Tissue Solutions Ltd.). Donors were diagnosed with AD, Braak stage V-VI (Braak et al., Neurobiol. Aging, 1995, 16, 271-284) and thus with confirmed Aβ pathology. Sections were kept at −80° C. until start of the experiment. Brain sections were encircled with pap pen liquid blocker to reduce the volume of solution for the different incubations. Sections were fixed for 15 min at 4° C. with 4% paraformaldehyde and washed three times for 5 minutes with PBS at room temperature. Test compounds were incubated on the sections at 100 μM in 50% ethanol in water for 30 min at room temperature, followed by three washes of 5 minutes with PBS. Sections were then saturated and permeabilized in blocking buffer (PBS, 10% NGS, 0.25% Triton) for 1 hour at room temperature and then incubated for 2 hours at room temperature with the primary antibodies against AR, 4G8, (Covance, SIG-39220), diluted 1/250 in PBS, 5% NGS, and 0.25% Triton. After three washes in PBS, the sections were incubated for 30 minutes at room temperature with a secondary anti-mouse antibody labeled with AlexaFluor555 (Invitrogen A21422) and further washed three times in PBS. To reduce auto-fluorescence of the tissue, the sections were incubated in a solution of 0.1% Sudan Black (Sigma 199664) in 70% ethanol for 15 min at room temperature, followed by four washes with PBS and mounted under cover slips using ProLong Gold Antifade reagent (Invitrogen P36930). Sections were analyzed on the Nikon Eclipse Ti microscope to detect staining and imaged using Nikon DS-Fi2 camera and NIS-Element AR4.13.1 software.

[3] = system: Aβ plaques on PD sections with mixed pathology; experiment: Assay 1 (fluorescence based assay): direct staining of PD brain sections with mixed pathology; assay type: binding, human; details: staining intensity; compound 100 μM, frozen amygdala sections, PD Braak stage V-VI with aSyn aggregates and Aβ plaques
Method: as §1, §2, §3, §4

Compound | Staining of aSyn aggregates on PD sections [1] | Staining of Aβ plaques on AD sections [2] | Staining of Aβ plaques on PD sections with mixed pathology [3]
FCCNc1ccc(-c2ccc3cc(-c4cccnc4)sc3n2)cn1 [Example 56] | ++ | ++ | 
CN(CCF)c1ccc(-c2ccc3cc(-c4cccnc4)sc3n2)cn1 [Example 57] | ++ | + | 
FCCOc1ccc(-c2cc3ccc(Nc4ccc5c(c4)OCCO5)nc3s2)cc1 [Example 58] | + | ++ | 
FCCOc1cccc(Nc2ccc3cc(-c4cccnc4)sc3n2)c1 [Example 59] | + | + | 
FCCOc1ccc(Nc2ccc3cc(-c4cccnc4)sc3n2)cc1 [Example 63] | ++ | ++ | 
c1cncc(-c2cc3ccc(Nc4ccc5c(c4)OCCO5)nc3s2)c1 [Example 64] | + | +++ | 
c1cncc(-c2cc3ccc(Nc4ccc(N5CCOCC5)cc4)nc3s2)c1 [Example 65] | + | +++ | 
c1cncc(-c2cc3ccc(Nc4ccc(N5CCOCC5)nc4)nc3s2)c1 [Example 66] | + | ++ | 
FCCOC1CCN(c2ccc3cc(-c4cccnc4)sc3n2)CC1 [Example 67] | + | + | 
FCCOC1CCN(c2cc3nc(-c4ccc(N5CCCC5)nc4)sc3cn2)CC1 [Example 68] | + | − | 
CN1CCN(c2ccc3nc(-c4ccc(N5CC[C@@H](F)C5)nc4)sc3c2)C(=O)C1 [Example 70] | + | + | 
CN1CCN(c2ccc3nc(-c4ccc(N5CC[C@H](F)C5)nc4)sc3c2)C(=O)C1 [Example 71] | + | − | 
O=C1COCCN1c1ccc2nc(-c3ccc(N4CC[C@@H](F)C4)nc3)sc2c1 [Example 72] | +++ | + | 
O=C1COCCN1c1ccc2nc(-c3ccc(N4CC[C@H](F)C4)nc3)sc2c1 [Example 73] | ++ | + | 
CNc1ccc(-c2cc3ccc(Nc4ccc(OCCF)cc4)nc3s2)cc1 [Example 74] | + | +++ | 
CNc1ccc(-c2cc3ccc(Nc4ccc5c(c4)OCCO5)nc3s2)cc1 [Example 75] | ++ | +++ | 
CNc1ccc(-c2cc3ccc(Nc4ccc(N5CCOCC5)cc4)nc3s2)cc1 [Example 76] | + | +++ | 
COc1ccc(C#Cc2ccc3cc(-c4cccnc4)sc3n2)cc1 [Example 77] | ++ | ++ | 
O=C1c2sc(-c3ccc(N4CCCC4)nc3)nc2CCN1CCF [Example 78] | + | + | 

Further lines, with some results ahead:

Staining of aSyn aggregates on PD sections [1] | Compound | Staining of Aβ plaques on AD sections [2] | Staining of Aβ plaques on PD sections with mixed pathology [3]
++ | CN1CCN(c2ccc3nc(-c4ccc(N5CCCC5)nc4)sc3c2)C(=O)C1 [Example 69] | + | 
+ | FCCn1cc(-c2cc3nc(-c4ccc(N5CCCC5)nc4)sc3cn2)cn1 [Example 79] | + | 
+++ | O=C1c2sc(-c3ccc(N4CCCC4)nc3)nc2CCN1c1cccnc1 [Example 80] | ++ | 
+++ | F[C@H]1CCCN(c2ccc(-c3nc4nc(-c5cn[nH]c5)ccc4s3)cn2)C1 [Example 83] |  | −
++ | Cn1cc(-c2ccc3sc(-c4ccc(N5CCC[C@H](F)C5)nc4)nc3n2)cn1 [Example 84] |  | +/−
+++ | Fc1nc(N2CCCC2)ccc1-c1nc2nc(-c3cn[nH]c3)ccc2s1 [Example 85] |  | −
++ | Cn1cc(-c2ccc3sc(-c4ccc(N5CCCC5)nc4F)nc3n2)cn1 [Example 86] |  | −
++ | Fc1nc(N2CCCC2)ccc1-c1nc2nc(-c3cccnc3)ccc2s1 [Example 87] |  | −
+++ | Cc1n[nH]c(C)c1-c1ccc2sc(-c3ccc(N4CCCC4)nc3F)nc2n1 [Example 88] |  | −
++ | c1cncc(-c2ccc3sc(-c4ccc(N5CCCC5)nc4)nc3n2)c1 [Example 89] |  | −
++ | F[C@@H]1CCN(c2ccc(-c3nc4nc(-c5cccnc5)ccc4s3)cn2)C1 [Example 90] |  | −
++ | F[C@H]1CCN(c2ccc(-c3nc4nc(-c5cccnc5)ccc4s3)cn2)C1 [Example 91] |  | −
+++ | Cn1cncc1-c1ccc2sc(-c3ccc(N4CCCC4)nc3F)nc2n1 [Example 94] |  | −
++ | Fc1nc(N2CCCC2)ccc1-c1nc2nc(-c3cnc[nH]3)ccc2s1 [Example 95] |  | −
++ | Fc1nc(N2CCCC2)ccc1-c1nc2nc(-c3cc[nH]c3)ccc2s1 [Example 96] |  | +/−
+ | Cn1nccc1-c1ccc2sc(-c3ccc(N4CCCC4)nc3F)nc2n1 [Example 97] |  | +/−
+ | F[C@H]1CCCN(c2ccc(-c3nc4nc(-c5cncs5)ccc4s3)cn2)C1 [Example 98] |  | +/−
++ | F[C@@H]1CCCN(c2ccc(-c3nc4nc(-c5cncs5)ccc4s3)cn2)C1 [Example 99] |  | +/−
++ | F[C@@H]1CCCN(c2ccc(-c3nc4ncc(-c5cccnc5)cc4s3)cn2)C1 [Example 100] |  | ++
++ | O=C1COCCN1c1ccc2nc(-c3ccc(N4CCC[C@@H](F)C4)nc3)sc2c1 [Example 126] | ++ | 
++ | O=C1COCCN1c1ccc2nc(-c3ccc(N4CCC[C@H](F)C4)nc3)sc2c1 [Example 127] | + | 
